From patent US20120028917A1, “Use Of N-(4-((3-(2-Amino-4-Pyrimidinyl)-2-Pyridinyl)Oxy)Phenyl)-4-(4-Methyl-2-Thienyl)-1-Phthalazinamine In The Treatment Of Antimitotic Agent Resistant Cancer” (Amgen Inc., priority 2009, published 2012) come the findings set out here.

One assay concerns MES-SA Dx5. Kind of assay: p-Histone H3 assay (ArrayScan VTi). Format: cell-based. As to conditions: Homo sapiens, 24 h; MES-SA Dx5, Uterine, Doxorubicin-selected, P-gp overexpressing. On the procedure: (§1) MES-SA Dx5 and MES-SA cells were plated at a density of 10,000 cells/well onto 96-well plate in complete media and cultured for 24 hours. […] Cells were washed and fixed by adding 100 μL of 2× formaldehyde fixation buffer for 10 minutes and room temperature. […] Cells were immunostained with p-histone H3 antibody (5 μg/mL) and incubated at room temperature for 2 hours. Cells were washed in 100 μL of wash buffer. Next, cells were incubated with a goat anti-rabbit alexa-488 conjugated antibody (1.5 μg/mL) in wash buffer supplemented with Hoechest DNA dye (1 μg/mL) and incubated at room temperature in the dark for 30 minutes. Cells were washed twice with 100 μL of wash buffer. The 96-well plates were analyzed on an ArrayScan VTi (Cellomics) using a bioapplication algorithm (TargetActivation.V2). […] Cells were then fixed and stained with p-histone H3 antibody and counterstained with a DNA dye (Hoechest). Imaging-based analysis (ArrayScan VTi) was performed to measure the percentage of p-histone H3 positive cells. The dose-response curves represent either AMG 900 or taxol concentrations plotted against p-Histone H3 positive cells as a percentage of DMSO-treated control (POC). The EC50 values were calculated by 4-parameter fit model.

The subject of the next assay is MES-SA. Nature of the assay: p-Histone H3 assay (ArrayScan VTi). The note with it: Homo sapiens, 24 h, Uterine, Parent line. Format: cell-based. The method, then:
as §1

The next assay relates to MDA-MB-231-Taxol-r. Kind of assay: Cell cycle DNA content assay (flow cytometry). Format: cell-based. The note with it: Homo sapiens, 24 h, Breast, Paclitaxel-selected, read-out: EC50 @ 24 hours, Sub G1. The method, then: (§2) MDA-MB-231(F11)-luc parent and taxol-resistant cells were seeded at a density of 250,000 cells/well in a 12-well plate in 1 mL of in the appropriate media, in duplicates. The next day cells were treated with AMG 900 or taxol over a 10-point concentration range with a final DMSO concentration of 0.1% in taxol-free media. After 24 hours, cells were harvested with 1× trypsin-EDTA and transferred to PCR tubes. Cells were centrifuged at 2000 rpm for 4 minutes and the supernatant was aspirated. Cells were fixed in 200 μL of ice cold 90% methanol and stored at −20° C. for at least 24 hours. Fixed cells were centrifuged at 2000 rpm for 4 minutes to remove 90% methanol. Cells were washed with wash buffer and stained with 200 μL of propidium iodide (PI) for 30 minutes at 4° C. in the dark. An additional 400 μL of PI was added before data acquisition. Data was acquired and analyzed by flow cytometry (LSRII). A threshold gate was applied according to +4N (same as ≧4N) DNA content based on DMSO control and low/high drug-treated groups. The data was represented as percentage of control for +4N DNA content positive populations. The +4N DNA content cellular EC50 values were assigned using 4-parameter equation. […] Flow cytometric-based cell cycle analysis was performed to measure the percentage of ≧4N DNA content or SubG1 DNA content positive cells. The dose-response curves for AMG 900 represent the drug concentration plotted against the percentage of ≧4N DNA content positive cells. The dose-response curves for taxol represent the drug concentration plotted against the percentage of SubG1 DNA content positive cells. The EC50 values were calculated by 4-parameter fit model.

For another assay, the system named is MDA-MB-231. Kind of assay: Cell cycle DNA content assay (flow cytometry). Format: cell-based. As to conditions: Homo sapiens, 24 h; MDA-MB-231, Breast, Parent line; read-out: EC50 @ 24 hours, Sub G1. On the procedure:
as §2

A further assay has as its system NCI-H460-Taxol-r. Kind of assay: Cell cycle DNA content assay (flow cytometry). Format: cell-based. The note with it: Homo sapiens, 24 h, Lung, Paclitaxel-selected, read-out: EC50 @ 24 hours, Sub G1. The method, then: (§3) NCI-H460 parental and NCI-H460 taxol-resistant cells were seeded at a density of 500,000 cells/well in a 6-well plate in 2 mL of appropriate complete media. The next day cells were treated with AMG 900 or taxol over a 6-point concentration range with a final DMSO concentration of 0.05% in media. After 24 hours, cells were pulsed with BrdU (1:100 dilution) and harvested. Cells were centrifuged at 1600 rpm for 4 minutes and the supernatant was aspirated. Cells were washed in 1× PBS and fixed in 900 μL of ice cold 90% methanol and stored at −20° C. Fixed cells were centrifuged at 2000 rpm for 4 minutes to remove 90% methanol. Cells were washed with 200 μL of wash buffer and stained with 200 μL of propidium iodide (PI) overnight at 4° C. in the dark. Data was acquired and analyzed by flow cytomety (LSRII). A threshold gate was applied according to +4N (same as ≧4N) DNA content and SubG1 positive populations based on DMSO-treated control and low/high drug-treated groups. The data was represented as a percentage of +4N DNA and SubG1 positive subpopulations. The +4N (same as ≧4N) DNA content or SubG1 cellular EC50 values were calculated using a 4-parameter equation. Lung tumor cell lines were treated with control (DMSO), AMG 900 or taxol over a 6-point dose range for 24 hours. Flow cytometric-based cell cycle analysis was performed to measure the percentage of ≧4N DNA content or SubG1 DNA content positive cells. The dose-response curves for AMG 900 represent the drug concentration plotted against the percentage of ≧4N DNA content positive cells. The dose-response curves for taxol represent the drug concentration plotted against the percentage of SubG1 DNA content positive cells. The EC50 values were calculated by 4-parameter fit model.

In the next assay the test system is NCI-H460. Kind of assay: Cell cycle DNA content assay (flow cytometry). As to conditions: Homo sapiens, 24 h; NCI-H460, Lung, Parent line; read-out: EC50 @ 24 hours, Sub G1. Format: cell-based. The method, then: as §3
The subject of assay [1] is NCI-H460-taxol resistant tumor xenografts. Nature of the assay: Growth of established NCI-H460-taxol resistant xenografts (Example 4). Format: in vivo, athymic nude mice. The note with it: 12.5mpk IP QD 5 days/week × 2 wks. The method, then:
To investigate whether AMG 900-induced suppression of aurora kinase activity inhibits cell proliferation, the antitumor efficacy of AMG 900 was evaluated in vivo against NCI-H460-taxol resistant tumor xenografts in athymic nude mice. Mice were dosed PO with AMG 900 (BID) either intermittently or continuously. Mice were dosed IP with paclitaxel (taxol) 5 days/week. An internal Amgen compound was used as a positive control in this study (data not shown). Tumors were measured twice per week. Treatment began on day 12 when the tumors were established. All groups were provided nutritional supplements on a daily basis throughout the study to maintain body weight. AMG 900 (free base) was formulated into suspension to concentrations of 1.5 and 0.3 mg/mL. […] The duration of the dosing phase for AMG 900 was three weeks, and two weeks for the taxol group. The tumors were measured with a digital caliper and the mice were weighed twice per week. Tumor volumes were calculated as follows: […] Tumor inhibition was calculated as follows: […] FIG. 5 illustrates the effects of AMG 900 and Taxol treatment on the growth of established H460-taxol resistant tumors. […] Tumors were measured twice per week. Treatment began 12 days after tumor implantation (arrow) when tumors were approximately 170 mm^3. Mice were dosed PO or IP once or twice daily for 3 weeks. Data represent mean ±SE for each group. *P values (not shown) correspond to statistical difference between groups treated with vehicle and AMG 900 or Taxol analyzed with repeated measure Sheffe's ANOVA over time using […]. The scheduled days listed in the legend represent days/ week. All groups were provided nutritional supplements throughout the study.

The test system of a further assay is HCT116 AZD1152-resistant. Kind of assay: Colony formation assay (FIG. 6-B). Format: cell-based, human. As to conditions: both HCT116 cell lines (parental and AZD1152-resistant) compared. The method, then:
Tumor cell lines were obtained from the American Type Culture Collection (ATCC) unless otherwise specified. The MDA-MB-231-PTX and NCI-H460-PTX cell lines were established by growing the cells in the presence of increasing concentrations of paclitaxel over a period of 6 months. The HCT116 AZD1152-resistant cell line was established by growing the cells in the presence of AZD1152 at 80 nmol/L. Tumor cells were treated with AMG 900, paclitaxel or AZD1152 (0.5, 5, 50 nmol/L) for 48 hours, washed twice with complete media, and cells were re-plated at a density of 5000 cells per well in drug-free complete media. Cells were grown until the DMSO control wells were confluent. Cells were stained with crystal violet dye (Sigma), washed with distilled water, and imaged using a digital scanner (Hewlett-Packard). Colony formation assay was performed with HCT116 cell lines (parental and AZD1152-resistant). Cells were treated with DMSO, AMG 900, AZD1152, or paclitaxel at the indicated concentrations for 48 hours and re-plated in complete media lacking the inhibitor. After the DMSO-treated cells reached confluence, the cells were stained with crystal violet and imaged (duplicate wells).

Several values for one entry are separate records, joined by “and”; a condition that tells them apart may be missing. Equal values may be shown once.

Take `CC(=O)O[C@H]1C(=O)[C@@]2(C)[C@H]([C@H](OC(=O)c3ccccc3)[C@]3(O)C[C@H](OC(=O)[C@H](O)[C@@H](NC(=O)c4ccccc4)c4ccccc4)C(C)=C1C3(C)C)[C@]1(OC(C)=O)CO[C@@H]1C[C@@H]2O` [Paclitaxel, reference compound]: the concentration for a half-maximal effect (EC50) is more than 1250 nM in the assay with MES-SA Dx5; 10 nM in the assay with MES-SA; 95 nM in the assay on MDA-MB-231-Taxol-r; 2 nM with MDA-MB-231; more than 100 nM with NCI-H460-Taxol-r; 10 nM in the assay on NCI-H460. The “Tumor volume, Mean” value in assay [1] was 1383 mm^3. The “Tumor volume, Median” value in assay [1] is 1072.0 mm^3. Besides, in assay [1] (listed as Taxol), the “% Inhibition (tumor growth)” value was 20% and 19.7%. In the assay on HCT116 AZD1152-resistant, the “sensitivity in colony formation” value is given as “equally sensitive”.
